Data reported in patent US20250051263A1, “NOVEL IONIZABLE LIPIDS AND LIPID NANOPARTICLES AND METHODS OF USING THE SAME” (Sail Biomedicines, Inc., priority 2021, published 2025).

Legend:
[1] = TNS (pKa) assay, apparent LNP pKa; format: physicochemical; details: for pKa (TNS): Example 5 LNP lipid:DOPE:Plant Cholesterol:DMPE-PEG2k 35:16:46.5:2.5, FLUC/EPO 1:1 mRNA, N:P 6:1
Procedure: (protocol adapted from: A Novel Amino Lipid Series for mRNA Delivery: Improved Endosomal Escape and Sustained Pharmacology and Safety in Non-human Primates, Sabnis, Staci et al., Molecular Therapy, Volume 26, Issue 6, 1509-1519) 20 buffers (10 mM sodium phosphate, 10 mM sodium borate, 10 mM sodium citrate, and 150 mM sodium chloride, in Distilled Water) of unique pH values ranging from 3.0-12.0 were prepared using 1M sodium hydroxide and 1M hydrochloric acid. 3.25 uL of LNPs (0.04 mg/mL mRNA, in PBS) were incubated with 2 μL of TNS reagent (0.3 mM, in DMSO) and 90 μL of buffer for each pH value (described above) in a 96-well black-walled plate. Each pH condition was performed in triplicate wells. The TNS fluorescence was measured using a Biotek Cytation Plate reader at excitation/emission wavelengths of 321/445 nm. The fluorescence values were then plotted and fit using a 4-parameter sigmoid curve. From the fit, the pH value yielding the half-maximal fluorescence was calculated and reported as the apparent LNP pKa value.
For pKa measurement, a […] assay was conducted according to those described in Sabnis et al., Molecular Therapy, 26(6):1509-19), which is incorporated herein by reference in its entirety. Briefly, 20 buffers (10 mM sodium phosphate, 10 mM sodium borate, 10 mM sodium citrate, and 150 mM sodium chloride, in distilled Water) of unique pH values ranging from 3.0-12.0 were prepared using 1M sodium hydroxide and 1M hydrochloric acid. 3.25 μL of a LNP composition (0.04 mg/mL mRNA, in PBS) was incubated with 2 μL of TNS reagent (0.3 mM, in DMSO) and 90 μL of buffer for each pH value (described above) in a 96-well black-walled plate. Each pH condition was performed in triplicate wells. The TNS fluorescence was measured using a Biotek Cytation Plate reader at excitation/emission wavelengths of 321/445 nm. The fluorescence values were then plotted and fit using a 4-parameter sigmoid curve. From the fit, the pH value yielding the half-maximal fluorescence was calculated and reported as the apparent LNP pKa value.

[2] = LNP size and polydispersity, Zetasizer Ultra; format: physicochemical
From the text: All other compositions (i.e., compositions of MC3 (a commercially available ionizable lipid having a chemical name of (6Z,9Z,28Z,31Z)-heptatriacont-6,9,28,31-tetraene-19-yl 4-(dimethylamino)butanoate, and compositions of novel ionizable lipids 7669, 7671, 7668, 767, 7650) are composed of ionizable lipid:structural lipid:sterol:PEG-lipid (SDA lipid #:DSPC:cholesterol:14:0 PEG2000 PE) at a molar ratio of […], respectively. Lipids are solubilized in ethanol. Compositions are then handled as above, except the formulations are maintained at ionizable lipid to mRNA N:P ratio of 6:1. The lipid mix and mRNA solution are mixed at a 1:3 ratio by volume, respectively, on a NanoAssemblr Ignite (Precision Nanosystems) at a total flow rate of 9 mL/min. Resulting compositions are then loaded into Slide-A-Lyzer G2 dialysis cassettes (10 k MWCO) and dialyzed in 200 times sample volume of 1×PBS for 4 hrs at room temp with gentle stirring. The PBS is refreshed, and the compositions are further dialyzed for at least 14 hrs at 4° C. with gentle stirring. The dialyzed compositions are then collected and concentrated by centrifugation at 2000×g using Amicon Ultra centrifugation filters (100 k MWCO). Concentrated particles are characterized for size, polydispersity, and particle concentration using Zetasizer Ultra (Malvern Panalytical) and for mRNA encapsulation efficiency using Quant-iT RiboGreen RNA Assay Kit (ThermoFisher Scientific).
The lipid mix and mRNA solution were mixed at a 1:3 ratio by volume, respectively, on the NanoAssemblr Ignite (Precision Nanosystems) at a total flow rate of 9 mL/min. Resulting formulations were then loaded into Slide-A-Lyzer G2 dialysis cassettes (10 k MWCO) and dialyzed in 200 times sample volume of 1×PBS for 2 hrs at room temperature. The PBS was refreshed, and the formulations were further dialyzed for at least 14 hrs at 4° C. with gentle stirring. The dialyzed formulations were then collected and concentrated by centrifugation at 3000×g using Amicon Ultra centrifugation filters (100 k MWCO). The concentrated formulations were characterized for size, polydispersity, and particle concentration using Zetasizer Ultra (Malvern Panalytical) and for mRNA encapsulation efficiency using Quant-iT RiboGreen RNA Assay Kit (ThermoFisher Scientific).
For each LNP composition, the lipid mix and mRNA solution were mixed at a 1:3 ratio by volume, respectively, on a NanoAssemblr Ignite (Precision Nanosystems) at a total flow rate of 9 mL/min. The resulting compositions were then loaded into Slide-A-Lyzer G2 dialysis cassettes (10 k MWCO) and dialyzed in 200 times sample volume of 1×PBS for 2 hours at room temperature with gentle stirring. The PBS was refreshed, and the compositions were further dialyzed for at least 14 hours at 4° C. with gentle stirring. The dialyzed compositions were then collected and concentrated by centrifugation at 3000×g using Amicon Ultra centrifugation filters (100 k MWCO). The concentrated particles were characterized for size, polydispersity, and particle concentration using Zetasizer Ultra (Malvern Panalytical) and for mRNA encapsulation efficiency using Quant-iT RiboGreen RNA Assay Kit (ThermoFisher Scientific).

[3] = Example 5 LNP lipid:DOPE:Plant Cholesterol:DMPE-PEG2k 35:16:46.5:2.5, FLUC/EPO 1:1 mRNA, N:P 6:1
[4] = LNP ionizable lipid:DOPE:Plant Chol.:DMPE-PEG2k 35:16:46.5:2.5 (Table 1)
[5] = LNP ionizable lipid:DSPC:Plant Chol.:DMPE-PEG2k 50:10:38.5:1.5

With `CCCCCCCCCCCOC(=O)CCCCCN(CCCCCCCC(=O)OCCCC(CCCCC)CCCCC)CCN1CCN(CCN(CCCCCCCC(=O)OCCCC(CCCCC)CCCCC)CCCCCC(=O)OCCCCCCCCCCC)CC1` [Compound 2397, 4-pentylnonyl 8-[2-[4-[2-[[8-oxo-8-(4-pentylnonoxy)octyl]-(6-oxo-6-undecoxy-hexyl)amino]ethyl]piperazin-1-yl]ethyl-(6-oxo-6-undecoxy-hexyl)amino]octanoate] the “pKa (TNS)” value [1] was 6.44, the PDI [2, 3] was 0.09 and the “Size (nm)” value [2, 3] was 114.0 nm.

In the case of `CCCCCCCCCCCOC(=O)CCCCCN(CCCCCCCC(=O)OCCCC(CCCCC)CCCCC)CCNC(=O)/C=C/C(=O)NCCN(CCCCCCCC(=O)OCCCC(CCCCC)CCCCC)CCCCCC(=O)OCCCCCCCCCCC` [Compound 2382, 4-pentylnonyl 8-[2-[[(E)-4-oxo-4-[2-[[8-oxo-8-(4-pentylnonoxy)octyl]-(6-oxo-6-undecoxy-hexyl)amino]ethylamino]but-2-enoyl]amino]ethyl-(6-oxo-6-undecoxy-hexyl)amino]octanoate], the “pKa (TNS)” value [1] is reported as 6.97, the PDI [2, 3] is reported as 0.13 and the “Size (nm)” value [2, 3] is reported as 105.2 nm.

For `CCCCCC(CCCCC)CCCOC(=O)CCCCCCCN(CCCCCCCC(=O)OCCCC(CCCCC)CCCCC)CCNC(=O)CCC(=O)NCCN(CCCCCCCC(=O)OCCCC(CCCCC)CCCCC)CCCCCCCC(=O)OCCCC(CCCCC)CCCCC` [Compound 2332, bis(4-pentyl-nonyl)13,16-dioxo-9,20-bis(8-oxo-8-((4-pentylnon-yl)oxy)octyl)-9,12,17,20-tetraazaocta-cosanedioate], the “pKa (TNS)” value [1] was 6.57, the PDI [2, 3] was 0.12 and the “Size (nm)” value [2, 3] was 68.1 nm.

For `CCCCCCCCCCCOC(=O)CCCCCN(CCCCCCCC(=O)OC(CCCCCCCC)CCCCCCCC)CCNC(=O)NCCN(CCCCCCCC(=O)OC(CCCCCCCC)CCCCCCCC)CCCCCC(=O)OCCCCCCCCCCC` [Compound 2246, 1-octylnonyl8-[2-[2-[[8-(1-octylnonoxy)-8-oxo-octyl]-(6-oxo-6-undecoxy-hexyl)amino]ethylcarbamoylamino]ethyl-(6-oxo-6-undecoxy-hexyl)amino]octanoate], the “pKa (TNS)” value [1] was 6.63, the PDI [2, 3] was 0.05 and the “Size (nm)” value [2, 3] was 62.7 nm.

In the case of `CCCCCCCCCC(=O)OCCCCCCCN(CCCCCCCC(=O)OC(CCCCCCCC)CCCCCCCC)CCNC(=O)CCC(=O)NCCN(CCCCCCCOC(=O)CCCCCCCCC)CCCCCCCC(=O)OC(CCCCCCCC)CCCCCCCC` [Compound 2272, 7-[2-[[4-[2-[7-decanoyloxyheptyl-[8-(1-octylnonoxy)-8-oxo-octyl]amino]ethylamino]-4-oxo-butanoyl]amino]ethyl-[8-(1-octylnonoxy)-8-oxo-octyl]amino]heptyl decanoate], the “pKa (TNS)” value [1] is reported as 6.48, the PDI [2, 3] is reported as 0.07 and the “Size (nm)” value [2, 3] is reported as 68.7 nm.

With `CCCCCCCCCCCOC(=O)CCCCCN(CCCCCCCC(=O)OC(CCCCCCCC)CCCCCCCC)CCCNC(=O)CN(CC(=O)NCCCN(CCCCCCCC(=O)OC(CCCCCCCC)CCCCCCCC)CCCCCC(=O)OCCCCCCCCCCC)C(=O)CCN1CCCC1` [Compound 2353, 1-octylnonyl8-[3-[[2-[[2-[3-[[8-(1-octylnonoxy)-8-oxo-octyl]-(6-oxo-6-undecoxy-hexyl)amino]propylamino]-2-oxo-ethyl]-(3-pyrrolidin-1-ylpropanoyl)amino]acetyl]amino]propyl-(6-oxo-6-undecoxy-hexyl)amino]octanoate] the “pKa (TNS)” value [1] was 7.01, the PDI [2, 3] was 0.14 and the “Size (nm)” value [2, 3] was 85.2 nm.

With `CCCCCCCCCC(C)COC(=O)CCCCCN(CCCCCCCC(=O)OC(CCCCCCCC)CCCCCCCC)CCNC(=O)CCC(=O)NCCN(CCCCCCCC(=O)OC(CCCCCCCC)CCCCCCCC)CCCCCC(=O)OCC(C)CCCCCCCCC` (stereo not drawn) [Compound 2355, 1-octylnonyl 8-[[6-(2-methylundecoxy)-6-oxo-hexyl]-[2-[[4-[2-[[6-(2-methylundecoxy)-6-oxo-hexyl]-[8-(1-octylnonoxy)-8-oxo-octyl]amino]ethylamino]-4-oxo-butanoyl]amino]ethyl]amino]octanoate] the “pKa (TNS)” value [1] was 6.2, the PDI [2, 3] was 0.07 and the “Size (nm)” value [2, 3] was 74.7 nm.

With `CCCCCCCCCCCOC(=O)CCCCCN(CCCCCCCC(=O)OC(CCCCCCCC)CCCCCCCC)CCNC(=O)/C=C/C(=O)NCCN(CCCCCCCC(=O)OC(CCCCCCCC)CCCCCCCC)CCCCCC(=O)OCCCCCCCCCCC` [Compound 2252, 1-octylnonyl 8-[2-[[(E)-4-[2-[[8-(1-octylnonoxy)-8-oxo-octyl]-(6-oxo-6-undecoxy-hexyl)amino]ethylamino]-4-oxo-but-2enoyl]amino]ethyl-(6-oxo-6-undecoxy-hexyl)amino]octanoate] the “pKa (TNS)” value [1] was 6.06, the pKa [1, 4] was 6.06 and the pKa [1, 5] was 5.49. The PDI [2, 3] was 0.13, the “Size (nm)” value [2, 3] was 70.0 nm and the PDI [2, 4] was 0.13. For the same molecule, the “Size (nm)” value [2, 4] was 69.98 nm, the PDI [2, 5] was 0.05 and the “Size (nm)” value [2, 5] was 126.40 nm.

For `CCCCCCCCCCCNC(=O)CCCCCN(CCCCCCCC(=O)NC(CCCCCCCC)CCCCCCCC)CCNC(=O)CCC(=O)NCCN(CCCCCCCC(=O)NC(CCCCCCCC)CCCCCCCC)CCCCCC(=O)NCCCCCCCCCCC` [Compound 2282, N,N′-bis[2-[[8-(1-octylnonylamino)-8-oxo-octyl]-[6-oxo-6-(undecylamino)hexyl]amino]ethyl]butanediamide], the “pKa (TNS)” value [1] was 6.92, the PDI [2, 3] was 0.16 and the “Size (nm)” value [2, 3] was 73.1 nm.

With `CCCCCCCCC(CCCCCCCC)OC(=O)CCCCCCCN(CCCCCCCC(=O)OC(CCCCCCCC)CCCCCCCC)CCNC(=O)CCC(=O)NCCN(CCCCCCCC(=O)OC(CCCCCCCC)CCCCCCCC)CCCCCCCC(=O)OC(CCCCCCCC)CCCCCCCC` [Compound 2275, 1-octylnonyl 8-[2-[[4-[2-[bis[8-(1-octylnonoxy)-8-oxo-octyl]amino]ethylamino]-4-oxo-butanoyl]amino]ethyl-[8-(1-octylnonoxy)-8-oxo-octyl]amino] octanoate] the “pKa (TNS)” value [1] was 6.03, the PDI [2, 3] was 0.10 and the “Size (nm)” value [2, 3] was 67.4 nm.

With `CCCCCCCCCCC(CC)OC(=O)CCCCCN(CCCCCCCC(=O)OC(CCCCCCCC)CCCCCCCC)CCNC(=O)CCC(=O)NCCN(CCCCCCCC(=O)OC(CCCCCCCC)CCCCCCCC)CCCCCC(=O)OC(CC)CCCCCCCCCC` (stereo not drawn) [Compound 2356, 1-octylnonyl 8-[[6-(1-ethylundecoxy)-6-oxo-hexyl]-[2-[[4-[2-[[6-(1-ethylundecoxy)-6-oxo-hexyl]-[8-(1-octylnonoxy)-8-oxo-octyl]amino]ethylamino]-4-oxo-butanoyl]amino]ethyl]amino]octanoate] the “pKa (TNS)” value [1] was 6.01, the PDI [2, 3] was 0.10 and the “Size (nm)” value [2, 3] was 74.2 nm.
